Measured values published in ChEMBL document CHEMBL5244230, “Artemisinin-derived hybrids and their anticancer activity” (Eur J Med Chem, 2020).
pIC50: −log10 of the molar value.

What was measured:
HCT-116 [1] = assay: Antiproliferative activity against human HCT-116 cells; format: functional, cell-based
PC-3 = assay: Antiproliferative activity against human PC-3 cells; format: functional, cell-based
HCT-116 [2] = assay: Antiproliferative activity against human HCT-116 cells assessed as reduction in cell viability; format: functional, cell-based; conditions: Homo sapiens, HCT-116
MDA-MB-231 [3] = assay: Antiproliferative activity against human MDA-MB-231 cells assessed as reduction in cell viability; format: functional, cell-based
HT-29 = assay: Antiproliferative activity against human HT-29 cells assessed as reduction in cell viability; format: functional, cell-based
DLD-1 = assay: Cytotoxicity against human DLD-1 cells assessed as cell growth inhibition measured after 48 hrs by MTT assay; format: functional
[4] = Cytotoxicity against human U87 cells assessed as cell growth inhibition measured after 48 hrs by MTT assay; format: functional, U-87MG ATCC; conditions: U-87 MG
HeLa = assay: Cytotoxicity against human HeLa cells assessed as cell growth inhibition measured after 48 hrs by MTT assay; format: functional
SiHa = assay: Cytotoxicity against human SiHa cells assessed as cell growth inhibition measured after 48 hrs by MTT assay; format: functional
A 172 = assay: Cytotoxicity against human A-172 cells assessed as cell growth inhibition measured after 48 hrs by MTT assay; format: functional
B16 = assay: Cytotoxicity against mouse B16 cells assessed as cell growth inhibition measured after 48 hrs by MTT assay; format: functional
MCF7 = assay: Anticancer activity against human MCF7 cells; format: functional, cell-based
A549 = assay: Antiproliferative activity against human A549 cells; format: functional, cell-based
MDA-MB-231 [5] = assay: Antiproliferative activity against human MDA-MB-231 cells; format: functional, cell-based; conditions: Homo sapiens, MDA-MB-231
[6] = Antiproliferative activity against human U-87 MG cells; format: functional, cell-based, U-87MG ATCC
NCI-H460 = assay: Antiproliferative activity against human NCI-H460 cells; format: functional, cell-based

Row | Structure (SMILES) | pIC50 (MDA-MB-231 [3]) | pIC50 (HT-29) | pIC50 (A549) | pIC50 (MDA-MB-231 [5]) | also measured
1 | C[C@H]1[C@@H](OC(=O)CCC(=O)O)O[C@@H]2O[C@@]3(C)CC[C@H]4[C@H](C)CC[C@@H]1[C@@]24OO3 |  |  |  |  | pIC50 (HCT-116 [1]): 5.28; pIC50 (PC-3): 5.28
2 | CC1=C(CCOC(=O)CCC(=O)O[C@@H]2O[C@@H]3O[C@@]4(C)CC[C@H]5[C@H](C)CC[C@@H]([C@H]2C)[C@@]35OO4)C(=O)C(C(C)C)=CC1=O |  |  |  |  | pIC50 (HCT-116 [1]): 5.62; pIC50 (PC-3): 5.62
3 | Cc1c(Cl)c(=O)oc2cc(OCCn3cc(CO[C@H]4O[C@@H]5O[C@@]6(C)CC[C@H]7[C@H](C)CC[C@@H]([C@H]4C)[C@@]57OO6)nn3)ccc12 | 6.37 | 6.37 |  |  | pIC50 (HCT-116 [2]): 6.37
4 | CC1=C(CCCCOC(=O)C[C@H]2O[C@@H]3O[C@@]4(C)CC[C@H]5[C@H](C)CC[C@@H]([C@H]2C)[C@@]35OO4)C(=O)C(C(C)C)=CC1=O |  |  |  |  | pIC50 (HCT-116 [1]): < 4.00; pIC50 (PC-3): < 4.00
5 | CC1=C(CCCOC(=O)CCC(=O)O[C@@H]2O[C@@H]3O[C@@]4(C)CC[C@H]5[C@H](C)CC[C@@H]([C@H]2C)[C@@]35OO4)C(=O)C(C(C)C)=CC1=O |  |  |  |  | pIC50 (HCT-116 [1]): < 4.00; pIC50 (PC-3): < 4.00
6 | CC1=C(CCCOC(=O)C[C@H]2O[C@@H]3O[C@@]4(C)CC[C@H]5[C@H](C)CC[C@@H]([C@H]2C)[C@@]35OO4)C(=O)C(C(C)C)=CC1=O |  |  |  |  | pIC50 (HCT-116 [1]): < 4.00; pIC50 (PC-3): < 4.00
7 | CC1=C(CCCO[C@H]2O[C@@H]3O[C@@]4(C)CC[C@H]5[C@H](C)CC[C@@H]([C@H]2C)[C@@]35OO4)C(=O)C(C(C)C)=CC1=O |  |  |  |  | pIC50 (HCT-116 [1]): < 4.00; pIC50 (PC-3): < 4.00
8 | CC1=C(CCCCOC(=O)CCC(=O)O[C@@H]2O[C@@H]3O[C@@]4(C)CC[C@H]5[C@H](C)CC[C@@H]([C@H]2C)[C@@]35OO4)C(=O)C(C(C)C)=CC1=O |  |  |  |  | pIC50 (HCT-116 [1]): < 4.00; pIC50 (PC-3): < 4.00
9 | C[C@H]1[C@@H](n2cc(-c3ccccc3)nn2)O[C@@H]2O[C@@]3(C)CC[C@H]4[C@H](C)CC[C@@H]1[C@@]24OO3 |  |  |  |  | GI50 (DLD-1): 130 nM; GI50 [4]: 130 nM; GI50 (HeLa): 130 nM; GI50 (SiHa): 130 nM; GI50 (A 172): 130 nM; GI50 (B16): 130 nM
10 | C.C[C@H]1[C@@H](CC(=O)O[C@@H]2C[C@@H](OC(=O)C[C@H]3O[C@@H]4O[C@@]5(C)CC[C@H]6[C@H](C)CC[C@@H]([C@H]3C)[C@@]46OO5)[C@H](C)O[C@H]2O[C@H](C)CCCCC(=O)O)O[C@@H]2O[C@@]3(C)CC[C@H]4[C@H](C)CC[C@@H]1[C@@]24OO3 | 5.26 |  | 5.26 |  | pIC50 (MCF7): 5.26
11 | Cc1ccccc1NS(=O)(=O)/C=C/c1ccc(OCc2ccc(C(=O)NCCO[C@@H]3O[C@@H]4O[C@@]5(C)CC[C@H]6[C@H](C)CC[C@@H]([C@H]3C)[C@@]46OO5)cc2)cc1 |  | 7.05 |  | 7.05 | 
12 | Cc1c(C)c2ccc(OCCn3cc(CO[C@H]4O[C@@H]5O[C@@]6(C)CC[C@H]7[C@H](C)CC[C@@H]([C@H]4C)[C@@]57OO6)nn3)cc2oc1=O | 6.37 | 6.37 |  |  | pIC50 (HCT-116 [2]): 6.37
13 | C[C@H]1[C@H](OCCNC(=O)c2ccc(COc3ccc(/C=C/S(=O)(=O)Nc4ccccc4)cc3)cc2)O[C@@H]2O[C@@]3(C)CC[C@H]4[C@H](C)CC[C@@H]1[C@@]24OO3 |  | 7.05 |  | 7.05 | 
14 | CCOC(=O)c1cc2ccc(OCCn3cc(CO[C@H]4O[C@@H]5O[C@@]6(C)CC[C@H]7[C@H](C)CC[C@@H]([C@H]4C)[C@@]57OO6)nn3)cc2oc1=O | 6.37 | 6.37 |  |  | 
15 | C[C@H]1[C@@H](OCc2cn(CCOc3ccc4c(C(F)(F)F)cc(=O)oc4c3)nn2)O[C@@H]2O[C@@]3(C)CC[C@H]4[C@H](C)CC[C@@H]1[C@@]24OO3 | 6.37 | 6.37 |  |  | pIC50 (HCT-116 [2]): 6.37
16 | Cc1ccccc1NS(=O)(=O)/C=C/c1cccc(OCCO[C@@H]2O[C@@H]3O[C@@]4(C)CC[C@H]5[C@H](C)CC[C@@H]([C@H]2C)[C@@]35OO4)c1 |  | 7.30 | 7.30 | 7.30 | pIC50 [6]: 7.30; pIC50 (NCI-H460): 7.30
17 | C[C@H]1[C@H](OCCNC(=O)c2ccc(COc3ccc(/C=C/S(=O)(=O)Nc4ccc(OC(F)(F)F)cc4)cc3)cc2)O[C@@H]2O[C@@]3(C)CC[C@H]4[C@H](C)CC[C@@H]1[C@@]24OO3 |  | 7.05 |  | 7.05 | pIC50 [6]: 7.05
18 | C[C@H]1[C@H](OCCOc2cccc(/C=C/S(=O)(=O)Nc3ccc(OC(F)(F)F)cc3)c2)O[C@@H]2O[C@@]3(C)CC[C@H]4[C@H](C)CC[C@@H]1[C@@]24OO3 |  | 7.30 | 7.30 | 7.30 | pIC50 [6]: 7.30; pIC50 (NCI-H460): 7.30

Row | Structure (SMILES) | pIC50 (MDA-MB-231 [3]) | pIC50 (HT-29) | pIC50 (A549) | pIC50 (MDA-MB-231 [5]) | also measured
19 | C[C@H]1[C@@H](CC(=O)O[C@@H]2C[C@@H](OC(=O)C[C@H]3O[C@@H]4O[C@@]5(C)CC[C@H]6[C@H](C)CC[C@@H]([C@H]3C)[C@@]46OO5)[C@H](C)O[C@H]2O[C@H](C)CCCCC2OCOO2)O[C@@H]2O[C@@]3(C)CC[C@H]4[C@H](C)CC[C@@H]1[C@@]24OO3 (some centres not stated) | 5.26 |  | 5.26 |  | pIC50 (MCF7): 5.26
20 | C[C@H]1[C@H](OCCOc2cccc(/C=C/S(=O)(=O)Nc3ccccc3)c2)O[C@@H]2O[C@@]3(C)CC[C@H]4[C@H](C)CC[C@@H]1[C@@]24OO3 |  | 7.30 | 7.30 | 7.30 | pIC50 [6]: 7.30; pIC50 (NCI-H460): 7.30
21 | C[C@H]1[C@H](OCCNC(=O)c2ccc(COc3ccc(/C=C/S(=O)(=O)Nc4ccccc4Cl)cc3)cc2)O[C@@H]2O[C@@]3(C)CC[C@H]4[C@H](C)CC[C@@H]1[C@@]24OO3 |  | 7.05 | 7.05 | 7.05 | 
22 | CCOC(=O)c1cc2ccc(OCCCn3cc(CO[C@H]4O[C@@H]5O[C@@]6(C)CC[C@H]7[C@H](C)CC[C@@H]([C@H]4C)[C@@]57OO6)nn3)cc2oc1=O | 6.37 | 6.37 |  |  | 
23 | Cc1ccc(F)c(NS(=O)(=O)/C=C/c2ccc(OCc3ccc(C(=O)NCCO[C@@H]4O[C@@H]5O[C@@]6(C)CC[C@H]7[C@H](C)CC[C@@H]([C@H]4C)[C@@]57OO6)cc3)cc2)c1 |  | 7.05 | 7.05 | 7.05 | pIC50 [6]: 7.05; pIC50 (NCI-H460): 7.05
24 | Cc1c(Cl)c(=O)oc2cc(OCCCn3cc(CO[C@H]4O[C@@H]5O[C@@]6(C)CC[C@H]7[C@H](C)CC[C@@H]([C@H]4C)[C@@]57OO6)nn3)ccc12 | 6.37 | 6.37 |  |  | 
25 | Cc1cc(=O)oc2cc(OCCn3cc(CO[C@H]4O[C@@H]5O[C@@]6(C)CC[C@H]7[C@H](C)CC[C@@H]([C@H]4C)[C@@]57OO6)nn3)ccc12 | 6.37 | 6.37 |  |  | pIC50 (HCT-116 [2]): 6.37
26 | C[C@H]1[C@H](OCCOc2cccc(/C=C/S(=O)(=O)Nc3cccc(Cl)c3)c2)O[C@@H]2O[C@@]3(C)CC[C@H]4[C@H](C)CC[C@@H]1[C@@]24OO3 |  | 7.30 | 7.30 | 7.30 | pIC50 [6]: 7.30; pIC50 (NCI-H460): 7.30
27 | Cc1cc(=O)oc2cc(OCCCn3cc(CO[C@H]4O[C@@H]5O[C@@]6(C)CC[C@H]7[C@H](C)CC[C@@H]([C@H]4C)[C@@]57OO6)nn3)ccc12 | 6.37 | 6.37 |  |  | 
28 | Cc1c(C)c2ccc(OCCCn3cc(CO[C@H]4O[C@@H]5O[C@@]6(C)CC[C@H]7[C@H](C)CC[C@@H]([C@H]4C)[C@@]57OO6)nn3)cc2oc1=O | 6.37 | 6.37 |  |  | 
29 | C[C@H]1[C@H](OCCNC(=O)c2ccc(COc3ccc(/C=C/S(=O)(=O)Nc4c(Cl)cccc4Cl)cc3)cc2)O[C@@H]2O[C@@]3(C)CC[C@H]4[C@H](C)CC[C@@H]1[C@@]24OO3 |  | 7.05 | 7.05 | 7.05 | 
30 | CC1=C(CCCCO[C@H]2O[C@@H]3O[C@@]4(C)CC[C@H]5[C@H](C)CC[C@@H]([C@H]2C)[C@@]35OO4)C(=O)C(C(C)C)=CC1=O |  |  |  |  | pIC50 (HCT-116 [1]): < 4.00; pIC50 (PC-3): < 4.00
31 | C[C@H]1[C@H](OCCNC(=O)c2ccc(COc3ccc(/C=C/S(=O)(=O)Nc4ccc(Cl)cc4)cc3)cc2)O[C@@H]2O[C@@]3(C)CC[C@H]4[C@H](C)CC[C@@H]1[C@@]24OO3 |  | 7.05 |  | 7.05 | pIC50 [6]: 7.05; pIC50 (NCI-H460): 7.05
32 | Cc1ccc(F)c(NS(=O)(=O)/C=C/c2cccc(OCCOC3O[C@@H]4O[C@@]5(C)CC[C@H]6[C@H](C)CC[C@@H]([C@H]3C)[C@@]46OO5)c2)c1 (some centres not stated) |  | 7.30 | 7.30 | 7.30 | pIC50 [6]: 7.30; pIC50 (NCI-H460): 7.30
33 | C[C@H]1[C@@H](OCc2cn(CCCOc3ccc4c(C(F)(F)F)cc(=O)oc4c3)nn2)O[C@@H]2O[C@@]3(C)CC[C@H]4[C@H](C)CC[C@@H]1[C@@]24OO3 | 6.37 | 6.37 |  |  | pIC50 (HCT-116 [2]): 6.37
34 | C[C@H]1[C@H](OCCNC(=O)c2ccc(COc3ccc(/C=C/S(=O)(=O)Nc4cccc(Cl)c4)cc3)cc2)O[C@@H]2O[C@@]3(C)CC[C@H]4[C@H](C)CC[C@@H]1[C@@]24OO3 |  | 7.05 | 7.05 | 7.05 | pIC50 (NCI-H460): 7.05
35 | COc1cc([C@@H]2c3cc4c(cc3[C@@H](O[C@@H]3O[C@@H]5CO[C@@H](C)O[C@H]5[C@H](O)[C@H]3O)[C@H]3COC(=O)[C@H]23)OCO4)cc(OC)c1O [ETOPOSIDE] |  |  |  |  | pIC50 (MCF7): 6.08
36 | CC1=CC(=O)C(C(C)C)=CC1=O [THYMOQUINONE] |  |  |  |  | pIC50 (HCT-116 [1]): 4.30; pIC50 (PC-3): 4.30
